# Source: patent US20260115203A1 (LABORATORIOS LITAPHAR, S.L., priority 2023, published 2026)
# “Also recorded” adds a separate entry of the source. Like-named read-outs stand apart in the source and are kept apart here.
# Columns and labels:
# [1] = biological target: T1, human progesterone receptor (Homo sapiens, UniProt P06401); settings: cited from earlier work
# T1 sequence (P06401 1-933): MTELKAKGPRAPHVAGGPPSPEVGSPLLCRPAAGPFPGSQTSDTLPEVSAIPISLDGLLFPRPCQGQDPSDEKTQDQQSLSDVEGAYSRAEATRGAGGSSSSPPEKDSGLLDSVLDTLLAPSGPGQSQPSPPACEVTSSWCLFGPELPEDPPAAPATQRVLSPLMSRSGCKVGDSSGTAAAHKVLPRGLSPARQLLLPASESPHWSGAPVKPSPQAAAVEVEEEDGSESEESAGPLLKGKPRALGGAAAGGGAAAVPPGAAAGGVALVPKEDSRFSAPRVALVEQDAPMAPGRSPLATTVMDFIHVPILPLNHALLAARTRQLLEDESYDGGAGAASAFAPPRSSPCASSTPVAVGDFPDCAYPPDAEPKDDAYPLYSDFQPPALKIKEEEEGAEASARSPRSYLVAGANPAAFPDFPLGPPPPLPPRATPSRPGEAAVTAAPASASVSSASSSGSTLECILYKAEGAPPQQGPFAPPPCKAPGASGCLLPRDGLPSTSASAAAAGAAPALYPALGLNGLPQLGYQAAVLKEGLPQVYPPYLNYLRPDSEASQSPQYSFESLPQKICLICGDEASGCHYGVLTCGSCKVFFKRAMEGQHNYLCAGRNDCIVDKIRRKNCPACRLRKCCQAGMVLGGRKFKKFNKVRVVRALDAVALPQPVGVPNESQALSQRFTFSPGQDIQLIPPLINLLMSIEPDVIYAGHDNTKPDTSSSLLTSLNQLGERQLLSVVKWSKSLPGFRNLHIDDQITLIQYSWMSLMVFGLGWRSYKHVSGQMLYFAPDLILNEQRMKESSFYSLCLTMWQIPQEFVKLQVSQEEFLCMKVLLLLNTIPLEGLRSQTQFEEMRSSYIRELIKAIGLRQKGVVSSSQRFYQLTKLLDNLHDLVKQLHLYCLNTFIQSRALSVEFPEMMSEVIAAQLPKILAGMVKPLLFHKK
# [2] = biological target: T2, human glucocorticoid receptor (Homo sapiens, UniProt P04150); settings: cited from earlier work
# T2 sequence (P04150 1-777): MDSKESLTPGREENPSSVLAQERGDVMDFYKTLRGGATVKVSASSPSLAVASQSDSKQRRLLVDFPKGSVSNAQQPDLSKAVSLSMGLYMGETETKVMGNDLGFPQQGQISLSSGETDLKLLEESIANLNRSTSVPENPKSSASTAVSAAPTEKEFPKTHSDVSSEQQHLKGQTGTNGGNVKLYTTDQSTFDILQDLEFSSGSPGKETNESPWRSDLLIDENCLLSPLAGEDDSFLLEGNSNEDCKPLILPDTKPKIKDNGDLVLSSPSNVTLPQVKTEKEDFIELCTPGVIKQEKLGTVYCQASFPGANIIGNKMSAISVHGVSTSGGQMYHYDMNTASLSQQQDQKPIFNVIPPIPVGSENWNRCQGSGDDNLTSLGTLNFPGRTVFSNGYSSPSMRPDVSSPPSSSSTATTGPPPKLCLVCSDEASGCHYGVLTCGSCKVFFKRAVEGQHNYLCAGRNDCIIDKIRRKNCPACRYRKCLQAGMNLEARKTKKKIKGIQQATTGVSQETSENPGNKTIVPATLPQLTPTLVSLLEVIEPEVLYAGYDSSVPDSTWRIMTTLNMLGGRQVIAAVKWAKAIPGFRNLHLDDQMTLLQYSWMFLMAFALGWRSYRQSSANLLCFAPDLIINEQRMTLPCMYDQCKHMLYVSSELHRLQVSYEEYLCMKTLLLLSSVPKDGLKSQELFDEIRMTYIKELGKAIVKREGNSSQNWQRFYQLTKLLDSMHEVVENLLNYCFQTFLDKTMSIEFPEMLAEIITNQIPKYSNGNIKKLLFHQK
# [3] = compared with parent drug mifepristone; cited from earlier work
# [4] = test system: endometriosis in reproductive-age women; experiment: Randomized, double-blind clinical trial of mifepristone 2.5 mg and 5 mg vs. placebo (EudraCT 2018-002367-26), endometriosis associated pain by VAS; assay type: in vivo
# From the text: Both mifepristone products were formulated as tablets with the following respective compositions: […]
# The planned number of subjects to be included in the whole clinical trial was 490.
# The principal inclusion criteria were: • [1] Premenopausal female, between 18 and 45 years of age inclusive, at the time of signing consent • [2] Patients with Endometriosis Associated Pelvic Pain (EAPP: i.e. any type of pelvic pain associated with endometriosis: nonmenstrual pelvic pain, dysmenorrhea, dyschezia and dyspareunia) as measured by Visual Analogue Scale (VAS)≥40 mm at least once in the previous 4 weeks from baseline visit • [3] Patients with a history of EAPP for at least the past 6 months prior to the initial screening visit • [4] Endometriosis diagnosed by laparoscopy and/or surgery in the past 10 years or less or diagnosed by MRI or transvaginal ultrasound in the past 5 years • [5] Patients with a history of regular menstrual cycles (21-35 days) while not being on any pharmacological treatment that could alter the menstrual cycle (e.g. oral contraceptive pills) • [6] Patients who agree to use only ibuprofen 400 mg as rescue medication up to a total daily dose of not more than 2400 mg • [7] Patients willing and able (e.g. mental and physical condition) to participate in all aspects of the study as evidenced by providing signed written informed consent • [8] Patient agrees to use double barrier contraception birth control methods (e.g. condom with spermicide) during the entire length of participation in the study. […] History of hypersensitivity or intolerance to the active substance or any of the excipients of the study medication • [2] Subject is pregnant or breast-feeding or is planning a pregnancy within the duration of the study or is less than 6 months postpartum, post-abortion, or post-lactation at the time of entry into the screening period • [3] Previous use of hormonal agents before the Screening visit: ≤24 weeks for GnRH agonists; ≤12 weeks for depot progestogens and danazol: ≤6 weeks for oral contraceptives • [4] Patients with history of any cancer (including breast cancer) and/or histological diagnosis of endometrial atypical hyperplasia at baseline (note: the combination of endometrial thickness<5 mm determined by transvaginal ultrasound and insufficient material for histological evaluation from the endometrial biopsy will be regarded as atrophic endometrium) • [5] Other clinically significant gynaecological condition causing abnormal uterine bleeding already known or identified on Screening such as severe adenomyosis or symptomatic uterine fibroids requiring treatment • [6] Subject has current or history of abnormal genital bleeding • [7] Presence of ovarian cyst of unknown etiology • [8] Cervical smear with pathological findings: class III or higher according to Papanicolaou, class IIp or higher according to the Munich Ill nomenclature or ASC-US or higher according to the Bethesda system • [9] Surgical treatment of endometriosis within 3 months prior to the screening visit • [10] Presence of chronic pain other than pain due to endometriosis • [11] Hepatic insufficiency • [12] History of, or complications of, thrombosis, embolism, or serious cardiac, respiratory (severe asthma not adequately controlled by treatment), renal, hematologic, endocrine diseases • [13] Uncontrolled or inadequately controlled hypertension at the time of screening with a resting supine systolic or diastolic blood pressure>180 mmHg or >95 mmHg, respectively • [14] Subject with hereditary porphyria • [15] Abnormal laboratory findings considered by the investigator as clinically significant • [16] Positive results for HBs-Ag, anti-HCV and HIV-1/HIV-2-antibodies • [17] […]
# [5] = test system: women with endometriosis; settings: 100 mg orally daily, three months, cited from earlier work
# [6] = test system: women with endometriosis; settings: 50 mg orally daily, 6 months, cited from earlier work
# [7] = test system: women with endometriosis; settings: 5 mg orally daily, 6 months, cited from earlier work
# [8] = test system: women with laparoscopic diagnostic of endometriosis; settings: cited from earlier work
structure (smiles),measurement,setting,value
CC#C[C@]1(O)CC[C@H]2[C@@H]3CCC4=CC(=O)CCC4=C3[C@@H](c3ccc(NC)cc3)C[C@@]21C [RU 42633],affinity toward the human progesterone receptor,[1],considerable affinity
same,affinity toward the human glucocorticoid receptor,[2],considerable affinity
same,serum concentrations,[3],in a similar range as those of the parent drug
CN(C)c1ccc([C@H]2C[C@@]3(C)[C@@H](CC[C@]3(O)C#CCO)[C@@H]3CCC4=CC(=O)CCC4=C32)cc1 [RU 42698],affinity toward the human progesterone receptor,[1],considerable affinity
same,affinity toward the human glucocorticoid receptor,[2],considerable affinity
same,serum concentrations,[3],in a similar range as those of the parent drug
CC#C[C@]1(O)CC[C@H]2[C@@H]3CCC4=CC(=O)CCC4=C3[C@@H](c3ccc(N)cc3)C[C@@]21C [RU 42848],affinity toward the human progesterone receptor,[1],considerable affinity
same,affinity toward the human glucocorticoid receptor,[2],considerable affinity
same,serum concentrations,[3],in a similar range as those of the parent drug
CC#C[C@]1(O)CC[C@H]2[C@@H]3CCC4=CC(=O)CCC4=C3[C@@H](c3ccc(N(C)C)cc3)C[C@@]21C [mifepristone],"pain relief, 2.5 mg daily dose compared with 5 mg daily dose",[4]; 2.5 mg (T1) vs 5 mg (T2) per day,more pronounced than the 5 mg group; also recorded: more effective than the 5 mg dose; also recorded: less pelvic pain than with a daily dose of 5 mg
same,pain associated with extra-pelvic endometriosis,"[4]; 2.5 mg tablet every day as monotherapy, lesions in cesarean sections or ovarian endometriomas",effective to reduce the pain associated with extra-pelvic endometriosis; also recorded: appropriate pain relief
same,endometrial thickening,[4]; 5 mg dose compared with 2.5 mg dose,markedly greater endometrial thickening than the lower dose of 2.5 mg
same,EAP (VAS),"[4]; T1, 2.5 mg mifepristone per day, 1 month of treatment",29.19
same,EAP (VAS),"[4]; T1, 2.5 mg mifepristone per day, 2 months of treatment",24.61
same,EAP (VAS),"[4]; T1, 2.5 mg mifepristone per day, 3 months of treatment",23.63
same,EAP (VAS),"[4]; T1, 2.5 mg mifepristone per day, 4 months of treatment",22.31
same,EAP (VAS),"[4]; T1, 2.5 mg mifepristone per day, month 0 (before treatment)",32.81
same,EAP (VAS),"[4]; T2, 5 mg mifepristone per day, 1 month of treatment",29.30
same,EAP (VAS),"[4]; T2, 5 mg mifepristone per day, 2 months of treatment",26.11
same,EAP (VAS),"[4]; T2, 5 mg mifepristone per day, 3 months of treatment",24.58
same,EAP (VAS),"[4]; T2, 5 mg mifepristone per day, 4 months of treatment",25.01
same,EAP (VAS),"[4]; T2, 5 mg mifepristone per day, month 0 (before treatment)",32.81
same,intensity of pain associated with endometriosis,"[4]; daily dose of 2.5 mg alone, no analgesic rescue medication",significant reduction
same,amenorrhea,[5]; six women,reported by all study participants
same,pelvic pain,[5]; six women,all women also reported improvement
same,extent of endometriosis (follow-up laparoscopy),[5],no significant change
same,amenorrhea / hypoestrogenism,[6]; all patients,amenorrhea without hypoestrogenism
same,pelvic pain and uterine cramping,[6]; nine women,improved in all patients
same,"regression of endometriosis (laparoscopic assessment, AFS score)",[6],55%
same,cyclic bleeding,[7]; seven women,ceased in all patients
same,pelvic pain,[7]; seven women,improved in six of seven patients
same,decrease of mean endometriosis scores,[7],decreased by only %
same,"amenorrhea and clinical improvement, 2.5 mg group vs 5 and 10 mg groups",[8]; 2.5 mg oral dose,significantly lower percentages of amenorrhea and clinical improvement than the 5 and 10 mg groups
same,"use of analgesics (rescue therapy), 2.5 mg group vs 5 and 10 mg groups",[8]; 2.5 mg oral dose,significantly greater use of analgesics
same,effectiveness against placebo,"[8]; 2.5, 5 and 10 mg oral doses, all treatment groups",more effective than the placebo group
same,"clinical improvement, 5 mg vs 10 mg",[8]; after 90 and 180 days of treatment,no differences were observed
